Where two headings read alike, the source gives them in different places.

The experiment relates to HCV replicon. Description: HCV replicon assay (NPT ELISA in HCV replicon-containing cells). Particulars: Hepatitis C virus, 72 h. The experiment is classed as cell-based. As to the method:
The compounds claimed herein were tested for the ability to inhibit viral replication of the Hepatitis C replicon in cultured cells in which the HCV replicon construct has been incorporated. The HCV replicon system was described by Bartenschlager, et. al (Science, 285, pp. 110-113 (1999)). The replicon system is predictive of in vivo anti-HCV activity; compounds that are active in humans uniformly evidence activity in the replicon assay.
In this assay HCV replicon containing cells are treated with different concentrations of the test compound to ascertain the ability of the test compound to suppress replication of the HCV replicon. As a positive control, HCV replicon-containing cells are treated with different concentrations of interferon alpha, a known inhibitor of HCV replication. The replicon assay system includes Neomycin Phosphotransferase (NPT) as a component of the replicon itself in order to detect the transcription of replicon gene products in the host cell. Cells in which the HCV replicon is actively replicating have high levels of NPT; the level of NPT is proportional to HCV replication. […] The NPT level of each sample is measured using a captured ELISA.
A protocol for testing compounds for the ability to inhibit viral replication of the Hepatitis C replicon cultured cells in which the replicon construct has been incorporated, follows.
The HCV replicon contains, 5-′3′, the HCV-IRES, the neomycin phosphotransferase (neo) gene, the IRES of encephalomyocarditis virus, which directs translation of HCV sequences NS3 to NS5B, and the 3′-NTR. The sequence of the HCV replicon has been deposited in GenBank (Accession no. AJ242652).
The replicon is transfected into Huh-7 cells using standard methods such as electroporation.
The equipment and materials include, but are not limited to, Huh-7 HCV replicon-containing cells, maintenance media (DMEM (Dulbecco's modified Eagle media) supplemented with 10% FBS, L-glutamine, non-essential amino acids, penicillin (100 units/ml), streptomycin (100 micrograms/ml), and 500 micrograms/ml of Geneticin G418), screening media (DMEM supplemented with 10% FBS, L-glutamine, and non-essential amino acid, penicillin (100 units/ml) and streptomycin (100 micrograms/ml)), 96 well tissue culture plates (flat bottom), 96 well plates (U bottom for drug dilution), Interferon alpha for positive control, fixation reagent (such as methanol: acetone), primary antibody (rabbit anti-NPTII), secondary antibody: Eu-N1 l, and enhancement solution.
HCV replicon-containing cells are rinsed with once PBS once; 2 mls of trypsin is added. Cells are incubated at 37° C. in a 5% CO2 incubator for 3-5 minutes. 10 mls of complete medium is added to stop the reaction. Cells are blown gently, put into a 15 ml tube, and spun at 1200 rpm for four minutes. The trypsin/medium solution is removed and 5 mls of medium (500 ml DMEM (high glucose)) from BRL catalog #12430-054; 50 mls 10% FBS, […] (50 mg/ml, BRL 10131-035), 5 ml MEM non-essential amino acid (100×BRL #11140-050) and 5 ml pen-strep (BRL #15140-148) is added. The cells and media are mixed carefully
Cells are plated with screening medium (500 ml DMEM (BRL #21063-029), 50 ml FBS (BRL #10082-147) and 5 ml MEM non-essential amino acid (BRL #11140-050) at 6000-7500 cells/100 μl/well of 96 well plate (6-7.5×10^5 cells/10 ml/plate). Plates are placed into 37° C. 5% CO2 incubator overnight.
The following morning, drugs (test compounds or interferon alpha) are diluted in 96 well U bottom plates with media or DMSO/media, depending on the final concentration chosen for screening. Generally for 6 concentrations of each test compounds ranging from 10 micromolar to 0.03 micromolar are applied. 100 μl of the test compound dilution is placed in wells of the 96 well plate containing the HCV replicon cells. Media without drug is added to some wells as a negative controls. DMSO is known to affect cell growth. […]
Background: Replicon systems follow genome replication, usually without infectious particles.

Where [1] appears, read: HCV replicon-containing Huh-7 cells, three days incubation, read-out: EC50 for inhibition of replication of the HCV replicon.

Regarding `CCCCOC(=O)c1ccc(NC(=S)NC(=O)CSc2ccccc2)cc1` [Compound 36, 4-[3-(2-(Phenylsulfanyl)-acetyl)-thioureido]-benzoic acid butyl ester], the EC50 was 2.3 µM (read-out: EC50 for inhibition of viral RNA replicon replication in Huh9-13 cells) and less than 30 µM under setting [1]. In the case of `O=C(COc1ccccc1)NC(=S)Nc1ccc2c(c1)OCO2` [Compound 37, 1-Benzo[1,3]dioxol-5-yl-3-(2-phenoxy-acetyl)-thiourea], the EC50 under setting [1] is less than 30 µM. Same read-out and setting: the same measure for `O=C(COc1ccccc1)N1CCN(c2cccc(OCc3ccccc3)c2)C1=S` [Compound 38]: less than 30 µM; for `O=C(NC(=S)Nc1cccc(OCc2ccccc2)c1)C1Cc2ccccc2O1` (centres unmarked) [Compound 39, 1-(3-Benzyloxy-phenyl)-3-(2,3-dihydro-benzofuran-2-carbonyl)-thiourea]: less than 30 µM.

Consider `O=C(NC(=S)Nc1cccc(OCc2ccccc2)c1)C1COc2ccccc2O1` (centres unmarked) [Compound 40, 1-(3-Benzyloxy-phenyl)-3-(2,3-dihydro-benzo[1,4]dioxine-2-carbonyl)-thiourea], for which the 50% effective concentration (EC50) under setting [1] was less than 30 µM. `O=C(NC(=S)Nc1cccc(OCc2ccccc2)c1)C1CCc2ccccc2O1` (centres unmarked) [Compound 41, 1-(3-Benzyloxy-phenyl)-3-(chroman-2-carbonyl)-thiourea]: the EC50 under setting [1] was less than 30 µM. Consider `O=C(NC(=S)Nc1cccc(OCc2ccccc2)c1)c1ccc2ccccc2n1` [Compound 42, 1-(3-Benzyloxy-phenyl)-3-(quinoline-2-carbonyl)-thiourea], for which the EC50 under setting [1] is less than 30 µM.

A word on the EC50: it is the concentration that produces a half-maximal response.

The record behind these values is patent US7094807B2, “Substituted aryl thioureas and related compounds; inhibitors of viral replication” (Achillion Pharmaceuticals, Inc., priority 2002, dated 2006).
